Marks after values point to notes of the source that are not given here.
Assays:
[1] = test system: rats treated with (25-35) β-amyloid fragment; assay: Amyloid burden in brain sections, (25-35) β-amyloid fragment rat model; assay type: in vivo; conditions: Study 2; sub-occipital 5 μg, days 7, 10, 13; β-amyloid only = 100%
Description: The number of animals in the groups varied from 3 to 13. Results were analysed using one-way ANOVA (F(2,18)=5.2, p=0.016), and significance of results was contingent on achieving a p-value of less than 0.05 (*p<0.05 and **p<0.01), when compared with the A-β/V group (Newman-Keuls posttest).
The number of animals in the groups varied from 2 to 12. Results were analysed using one-way ANOVA (F(2,15)=9.54, p=0.002), and significance of results was contingent on achieving a p-value of less than 0.05 (***p<0.001), when compared with the A-β/V group (Newman-Keuls posttest).
The number of animals per group varied from 3 to 13. The results were analysed using one-way ANOVA (F(2,12)=18.6, P=0.002) and significance of results was contingent on achieving a p-value of less than 0.05 (***p<0.001) when compared with the A-β/V group (Bonferroni's multiple comparison test).
The number of animals per group varied from 3 to 5. The results were analysed using one-way ANOVA (F(2,9)=10.6, P=0.004) and significance of results was contingent on achieving a p-value of less than 0.05 (***p<0.001) when compared with the A-β/V group (Newman-Keuls post-test).
Behaviour of animals was evaluated using the Social Recognition test, the Open Field test or the Light-dark Discriminating γ-maze. […] In addition, the number of neurons in selected areas of brain-sections was calculated using a stereological approach.

[2] = test system: rats treated with (25-35) β-amyloid fragment; assay: Light-dark Discriminating Y-maze with positive food reinforcement; assay type: in vivo, rat
Description: The present study employed a rat model, in which neurotoxicity and cognitive impairment were induced by the (25-35) β-amyloid peptide fragment (see Maurice T., et al. (1996) (Brain Res. 706:181-93) and Delobette S., et al. (1997) Eur J Pharmacol. 319:1-4). Short-term memory deficit induced by the (25-35) β-amyloid peptide fragment in rat is of special importance to study, as it resembles one of the clinical manifestations of Alzheimer's disease. Short-term memory deficit in rats was evaluated using three different behavioural tests: the Social Recognition (Kogan et al, (2000) Hippocampus 10:47-56), Open Field (Cerbone and Sadile, (1994) Neurosci Biobehav Rev. 18:497-518; Vianna et al, (2000) Learn Mem. 7:333-40) and Y-maze (Clayton & Williams, (2000) Neurobiol Learn Mem. 74:135-45) tests. […]
(§1) Behaviour of animals was evaluated using the Social Recognition test, the Open Field test or the Light-dark Discriminating γ-maze. On day 28-30 or day 51 after i.c.v. administration of the (25-35) β-amyloid fragment, the animals were sacrificed, and in selected studies, the brain tissue was collected, histological sections were immunostained with A-β specific antibodies and the amyloid-burden was calculated as a percentage of the A-βpositive area. In addition, the number of neurons in selected areas of brain-sections was calculated using a stereological approach.

dopaminergic neurons = assay: Survival of dopaminergic neurons exposed to 6-OHDA; assay type: cell-based, rat
Description: Dopaminergic neurons (DN) (a and b) from day 15 rat embryos grown at a density of 150,000 cells/cm^2 for six days without or with various concentrations of peptide on 24-well cell culture plates coated with poly-D-lysine were exposed to 100 μM 6-OHDA for two hours. Medium was changed and various concentrations of FGLd were added. The neurons were grown for another 24 hours before the cultures they were fixed and immunostained for tyrosine hydroxylase.
Dopaminergic neurons were prepared from Wistar rat embryos at embryonic day 15 (Charles River, Sulzfeld, Germany or Møllegaard, Denmark). A pregnant rat was sacrificed and the uterus was taken out and kept on ice in Hank's balanced salt solution (HBSS; Gibco, BRL). The ventral part of the mesencephalon was dissected from the embryonic brains, homogenised on ice in Gey's balanced salt solution (GBSS; Gibco, BRL) supplemented with 5 g glucose/l (Sigma-Aldrich) and thereafter trypsinised. The dissociated cells were washed in the presence of DNAse 1 and soybean trypsin inhibitor (Sigma-Aldrich).
For the survival assay isolated neurons were seeded at a density of 150,000 cells/cm^2 in 24-well cell culture plates coated with poly-D-lysine as described above. The neurons were left to differentiate for six days without or with various concentrations of the FGL peptide, after which 6-OHDA was added at a concentration of 100 μM for two hours. A stock solution was prepared by dissolving 6-OHDA to a concentration of 10 mM in 0.1% (w/v) sodium metabisulfite in order to prevent oxidation. After two hours with 6-OHDA, the medium was changed to Neurobasal medium with supplements and peptide, and the cell cultures were further incubated for 24 hours, fixed and immunostained for tyrosine hydroxylase. 98 images for each experimental condition in each individual experiment were automatically recorded as described for the dopaminergic neurite outgrowth assay below.

rats = assay: Morris Water Maze test; assay type: in vivo, rat
Description: In the Morris Water Maze test, rats are evaluated in the spatial training task to find a hidden platform in order to escape swimming in the water.
In the Morris Water Maze study, rats were pre-trained to locate a hidden platform by daily training for 120 seconds for five days (days−4 to 0) before the experiment. On days 1 and 2, rats were given 3 consecutive trials in which the platform location remained constant. The time during which the rats were able to locate the platform was recorded within a maximum test-period of 120 seconds. The rats received a 5 μl injection of the FGLd peptide (5 μg), the control peptide (5 μg), or the vehicle solution immediately after each training trial on days 1 and 2.
The animals were tested 24 hours (day 3) and 7 days (day 10) after training. Fourteen days after training (day 17), the location of the platform was changed. Rats were trained to find a new location of the platform in three consecutive trials (“reversal learning”). In total, 48 animals were evaluated. Animals were divided into three groups consisting of 12-18 rats per treatment group.

[3] = test system: rats treated with (25-35) β-amyloid fragment; assay: Neuronal density / cell death in brain sections, (25-35) β-amyloid fragment rat model; assay type: in vivo; conditions: days 7, 10, 13
Description: The effect of 5.0 μg FGL per administration per rat, administered sub-occipitally on days 7, 10 and 13 after (25-35) β-amyloid (A-β) fragment-induced toxicity, on neuronal cell death in the CA3 zone of the rat hippocampus. The number of animals in the groups varied from 4 to 8.
(§2) The number of animals in the groups varied from 4 to 8.
as §2, §1

Q: For “FGLd: MAP-type dendrimer of FGL; dendrimeric tetramer of the FGL peptide (EVYVVAENQQGKSKA)”, which “amyloid burden in the CA3 area of the hippocampus” value [1] is on record?
A: The value was 44%.

Q: And the “amyloid burden in the cingulate cortex” value [1]?
A: The value was 42%.

Q: And the number of errors ([2]; day 25, last day of training, sub-occipital, β-amyloid control 3.8)?
A: The number of errors was 1.7.

Q: And the number of errors ([2]; training days 21-24, vs β-amyloid fragment-treated control)?
A: Its number of errors is “no significant differences”.

Q: And the “Neuronal Survival (% of Control)” value (dopaminergic neurons; 6-OHDA, DA (E14), 1 μg/mL)?
A: The value was 143%* % of Control.

Q: What about the “survival of dopaminergic neurons treated with 6-OHDA, maximal rescue” value (dopaminergic neurons; at 1 μg/ml, 6-OHDA-treated control = 100%) of the same substance?
A: Its value is “approximately 135%”.

Q: What about the “time to locate the platform” value (rats; day 2, 5 μg after training, untreated rats 93.0 s) of the same substance?
A: The value was 65.8 s.

Q: What about the “time to locate the platform (reversal learning)” value (rats; day 17) of the same substance?
A: The value was “statistically significant”.

Q: What about the “neuro-histopathology evaluation of the CA3 area of hippocampus” value ([3]; Study 1, sub-occipital) of the same substance?
A: Its value is “no significant effect”.

Q: What about the “density of neurons in the CA3 zone of the hippocampus” value ([3]; Study 2, sub-occipital 5 μg, β-amyloid only 15) of the same substance?
A: Its value is 22 neurons/mcm^2×10^−4.
